Assays:
[1] = Specific binding of 3H-labeled compound to membrane fraction prepared from rat brainstem; details: 3H-labeled compound of Example 7, 37° C., 1 hour; relative to dorsal root ganglion
Description: A binding property of a ^3H-labeled cyclic amine derivative (I) to each of membrane fractions prepared from various tissues of a rat was evaluated, and thus, a tissue containing a molecular target of the cyclic amine derivative (I) was clarified.
As the cyclic amine derivative (I), the compound of Example 7 was used.
Male SD rats (manufactured by Charles River Laboratories Japan, Inc.) of 7 weeks old were used. Rats were anesthetized with isoflurane, and euthanized by exsanguination from the abdominal aorta using a syringe having an inner wall treated with a heparin sodium injection (manufactured by AY Pharmaceuticals Co., Ltd.). […]
A homogenate sample of each tissue thus collected was prepared, using a homogenizer, by adding a homogenize buffer (sucrose (1 M), Tris-HCl (0.5 M), and 1× protease inhibitor cocktail (manufactured by Sigma Aldrich), pH 7.6) to the collected tissue. […] The resultant supernatant was ultracentrifuged at 100,000×g at 4° C. for 60 minutes, and the thus obtained precipitate was suspended in Krebs-Ringer bicarbonate buffer (manufactured by Sigma Aldrich) to quantitatively determine the amount of protein using a BCA protein assay kit (manufactured by Thermo Fisher Scientific K.K.). […]

[2] = test system: primary cultured cells of rat dorsal root ganglion; assay: Axon (neurite) extension in primary cultured cells of rat dorsal root ganglion with oxaliplatin-induced axonal injury; type: cell-based; details: 7 days
Excerpt: The effect of the cyclic amine derivative (I) or a pharmacologically acceptable salt thereof on neurite extension in primary cultured cells of rat dorsal root ganglion was examined.
Male SD rats (manufactured by Charles River Laboratories Japan, Inc.) of 4 to 7 weeks old were used. Each rat was anesthetized by intraperitoneally administering urethane. After confirming that the rat was anesthetized, the rat was rapidly euthanized by exsanguination from the abdominal aorta. After incision of the dorsal part, the spinal column was excised and cooled on ice. The dorsal side of the spinal column was cut off, and the spinal cord was removed from the ventral side of the spinal column to expose the dorsal root ganglia on the ventral side of the spinal column. The dorsal root ganglia (L3 to 6, right and left) were excised with tweezers, and dipped in ice-cold Leibovitz's L-15 medium (manufactured by Thermo Fisher Scientific), and the bundles of nerve fibers were removed under a stereoscopic microscope. The dorsal root ganglia from which the bundles of nerve fibers had been removed were made fine slits with ophthalmic scissors to be used as dorsal root ganglion pieces.
The dorsal root ganglion pieces were dipped in about 3 mL of a solution of collagenase A (manufactured by Roche Molecular Systems, Inc.), followed by incubation at 37° C. for 20 minutes. After the incubation, the resultant was centrifuged at 200×g at 25° C. for 5 minutes to remove a collagenase A solution corresponding to the supernatant. About 1 mL of a solution of trypsin was added thereto, followed by incubation at 37° C. for 5 minutes. Subsequently, about 3 mL of DMEM (manufactured by Thermo Fisher Scientific K.K.) containing 10% fetal bovine serum was added to the resultant, the resultant centrifuged at 200×g at room temperature for 5 minutes, and then the supernatant removed. […]

CN(C)C1CCN(C(=O)C[C@H](O)c2nccn2C)CC1 [Example 7, (S)-1-(4-(dimethylamino)piperidin-1-yl)-3-hydroxy-3-(1-methyl-1H-imidazol-2-yl)propan-1-one]
specific binding to the membrane fraction prepared from the brainstem, as % of the specific binding to the dorsal root ganglion membrane fraction [1]: 4.2% | length of a neurite compared to the oxaliplatin alone treated group ([2]; 100 μM with oxaliplatin 3 μM, FIG. 4, FIG. 5, p<0.025 Williams): significantly increased | length of a neurite compared to the oxaliplatin alone treated group ([2]; 10, 30 or 100 μM with oxaliplatin 3 μM, FIG. 5): found to increase

Source: patent US12545668B2, “Cyclic amine derivative as agent for promoting advillin function, and novel cyclic amine derivative and pharmaceutical use thereof” (Toray Industries, Inc., priority 2018, dated 2026)
